The conditions of data set [1]: cited from earlier work; for oral absorption: taken orally.
The test system of data set [2] is colonic cancer cells HCT116. The data set can be described thus: HCT116 colonic cancer xenograft in nude mice, two weeks of drug delivery (Embodiment 1): cancer volume and weight. The data set is classed as in vivo. Particulars: HCT116, ig, within 2 weeks, vs solvent group, FIG. 1-3. The text has this:
Nude mice were transplanted with colonic cancer cells HCT116; after the cancer volumes reached 200-300 mm3, the mice were randomly grouped, 8 pieces in each group; the mice were fed with drugs for two weeks. The drug delivery solution can be seen in Table 2 below: […]

For data set [3] the following is noted: cited from earlier work.
The subject of data set [4] is dihydropyrimidine dehydrogenase (DPD). Particulars: cited from earlier work.

`O=c1[nH]cc(F)c(=O)[nH]1` [5-Fluorouracil (5-FU), 5-Fluorouracil]: in data set [1] (in vivo), the t1/2 entry is given as “absorption t1/210~20 min,”. Besides, in data set [1], the oral absorption result is “Incomplete oral”.
In the case of `CCCCCOC(=O)Nc1nc(=O)n([C@@H]2O[C@H](C)[C@@H](O)[C@H]2O)cc1F` [Capecitabine, 5′-deoxy-5-fluoro-N[(pentyloxy)carbonyl]cytidine], the “5-FU concentration in the cancer tissues versus that in the blood” value in data set [1] (after the drug is taken orally) was “is 100 times higher”. In data set [1] (in vivo), the t1/2 entry is reported as “orally. t1/2 0.5~1.0 h”. In data set [1], the oral absorption result is reported as “Quickly absorbed by”. The “volume and weight of the cancer” value in data set [2] is “failed to reduce the volume and weight of the cancer”.
Take `Oc1cc(O)c(Cl)cn1` [Gimeracil (CDHP), 2,4-dyhydroxy-5-chloro pyridine]: the “anti-cancer activities when individually used” value in data set [3] is “no obvious anti-cancer activities”. Also, in data set [4], the “5-FU degradation inhibition effect relative to uracil” value was 180 times that of the uracil. Besides, the “DPD inhibiting effect relative to uracil” value in data set [4] (reversible inhibitor of the DPD) is reported as 180 times that of uracil.
Take `O=C(O)c1nc(=O)[nH]c(=O)[nH]1` [Oteracil potassium (OXO), Oteracil potassium]: the “anti-cancer activities when individually used” value in data set [3] is “no obvious anti-cancer activities”.
As to `O=c1[nH]c(=O)n(C2CCCO2)cc1F` (centres unmarked) [Tegafur (FT-207), 1-(etrahydro-2-furyl)-5-fluoro-2,4(1H,3H)-pyrimidinedione], in data set [1] (in vivo), the lipid solubility entry is recorded as “tract. It has higher” and the t1/2 entry is “absorption t1/25 h”. In addition, in data set [1], the oral absorption result is listed as “Good oral”. Besides, the “discharged in the original form along with the urine” value in data set [1] (within 24 h after drug delivery) is recorded as 23% is discharged.

The values are drawn from patent US20200022965A1, “PHARMACEUTICAL COMPOSITION FOR CANCER TREATMENT AND USE THEREOF” (priority 2016, published 2020).
